≈ marks a conversion by molar mass, not a printed value.
Assays:
Format in all cases: functional
Escherichia coli [1] = experiment: The compound was tested in vitro for antibacterial activity against Escherichia coli 250 UCS
Staphylococcus aureus [2] = experiment: The compound was tested in vitro for antibacterial activity against erythromycin susceptible Staphylococcus aureus 011UC4
Streptococcus pneumoniae [3] = experiment: The compound was tested in vitro for antibacterial activity against constitutively erythromycin resistant Streptococcus pneumoniae 030PW23c
Streptococcus pyogenes [4] = experiment: The compound was tested in vitro for antibacterial activity against erythromycin susceptible Streptococcus pyogenes 02A1UC1
Haemophilus influenzae [5] = experiment: The compound was tested in vitro for antibacterial activity against Haemophilus influenza 351HT3
Streptococcus pneumoniae [6] = experiment: The compound was tested in vitro for antibacterial activity against erythromycin susceptible Streptococcus pneumoniae 032UC1
Staphylococcus aureus [7] = experiment: The compound was tested in vitro for antibacterial activity against constitutively erythromycin resistant Staphylococcus aureus 011CB20
Streptococcus pneumoniae [8] = experiment: The compound was tested in vitro for antibacterial activity against constitutively erythromycin resistant Streptococcus pneumoniae 030SJ1
Streptococcus pneumoniae [9] = experiment: The compound was tested in vitro for antibacterial activity against inducibly erythromycin resistant Streptococcus pneumoniae 030J5i
Streptococcus pneumoniae [10] = experiment: The compound was tested in vitro for antibacterial activity against constitutively erythromycin resistant Streptococcus pneumoniae 030CR18c
Staphylococcus aureus [11] = experiment: The compound was tested in vitro for antibacterial activity against inducibly erythromycin resistant Staphylococcus aureus 011GO25i
Escherichia coli [12] = experiment: The compound was tested in vitro for antibacterial activity against Escherichia coli 250 UCS.
Haemophilus influenzae [13] = experiment: The compound was tested in vitro for antibacterial activity against Haemophilus influenza 351HT3.
Staphylococcus aureus [14] = experiment: The compound was tested in vitro for antibacterial activity against inducibly erythromycin resistant Staphylococcus aureus 011GO25i.
Streptococcus pneumoniae [15] = experiment: The compound was tested in vitro for antibacterial activity against erythromycin susceptible Streptococcus pneumoniae 032UC1.
Streptococcus pneumoniae [16] = experiment: The compound was tested in vitro for antibacterial activity against constitutively erythromycin resistant Streptococcus pneumoniae 030CR18c.
Staphylococcus aureus [17] = experiment: The compound was tested in vitro for antibacterial activity against erythromycin susceptible Staphylococcus aureus 011UC4.
Staphylococcus aureus [18] = experiment: The compound was tested in vitro for antibacterial activity against constitutively erythromycin resistant Staphylococcus aureus 011CB20.
Streptococcus pyogenes [19] = experiment: The compound was tested in vitro for antibacterial activity against erythromycin susceptible Streptococcus pyogenes 02A1UC1.
Streptococcus pneumoniae [20] = experiment: The compound was tested in vitro for antibacterial activity against constitutively erythromycin resistant Streptococcus pneumoniae 030PW23c.
Streptococcus pneumoniae [21] = experiment: The compound was tested in vitro for antibacterial activity against constitutively erythromycin resistant Streptococcus pneumoniae 030SJ1.
Streptococcus pneumoniae [22] = experiment: The compound was tested in vitro for antibacterial activity against inducibly erythromycin resistant Streptococcus pneumoniae 030J5i.
Mus musculus [23] = experiment: The compound was tested in vivo for antibacterial activity against erythromycin susceptible Streptococcus pyogenes 02A1UC1 in mice after oral administration
Mus musculus [24] = experiment: The compound was tested in vivo for antibacterial activity against inducibly erythromycin resistant Staphylococcus aureus 011GO3 in mice after oral administration
Mus musculus [25] = experiment: The compound was tested in vivo for antibacterial activity against erythromycin susceptible Staphylococcus aureus 011UC4 in mice after oral administration
Mus musculus [26] = experiment: (§1) The compound was tested in vivo for antibacterial activity against AmpR beta(+) Haemophilus influenza 351RD7 in mice after oral administration
Mus musculus [27] = experiment: (§2) The compound was tested in vivo for antibacterial activity against AmpR beta(-) Haemophilus influenza 351TO19 in mice after oral administration
Mus musculus [28] = experiment: The compound was tested in vivo for antibacterial activity against constitutively erythromycin resistant Streptococcus pneumoniae 030SJ1 in mice after oral administration
Mus musculus [29] = experiment: The compound was tested in vivo for antibacterial activity against inducibly erythromycin resistant Streptococcus pneumoniae 030RO1 in mice after oral administration
Mus musculus [30] = experiment: The compound was tested in vivo for antibacterial activity against constitutively erythromycin resistant Streptococcus pneumoniae 030MV2 in mice after oral administration
Mus musculus [31] = experiment: The compound was tested in vivo for antibacterial activity against erythromycin susceptible Streptococcus pneumoniae 032UC1 in mice after oral administration
Mus musculus [32] = experiment: The compound was tested in vivo for antibacterial activity against constitutively erythromycin resistant Streptococcus pneumoniae 030Cr29 in mice after oral administration
Mus musculus [33] = experiment: (§3) The compound was tested in vivo for antibacterial activity against Haemophilus influenza 351GR1 in mice after oral administration
Haemophilus influenzae [34] = experiment: as §1
Haemophilus influenzae [35] = experiment: as §2
Haemophilus influenzae [36] = experiment: as §3

Row | Structure (SMILES) | MIC (Escherichia coli [1]) | MIC (Staphylococcus aureus [2]) | MIC (Streptococcus pneumoniae [3]) | MIC (Streptococcus pyogenes [4]) | MIC (Haemophilus influenzae [5]) | MIC (Streptococcus pneumoniae [6]) | MIC (Staphylococcus aureus [7]) | MIC (Streptococcus pneumoniae [8]) | MIC (Streptococcus pneumoniae [9]) | MIC (Streptococcus pneumoniae [10]) | MIC (Staphylococcus aureus [11]) | MIC (Escherichia coli [12]) | MIC (Haemophilus influenzae [13]) | MIC (Staphylococcus aureus [14]) | MIC (Streptococcus pneumoniae [15]) | MIC (Streptococcus pneumoniae [16]) | MIC (Staphylococcus aureus [17]) | MIC (Staphylococcus aureus [18]) | MIC (Streptococcus pyogenes [19]) | MIC (Streptococcus pneumoniae [20]) | other results
1 | CC[C@H]1OC(=O)[C@H](C)C(=O)[C@H](C)[C@@H](O[C@@H]2O[C@H](C)C[C@H](N(C)C)[C@H]2O)[C@](C)(OC)C[C@@H](C)C(=O)[C@H](C)[C@H]2N(CCCCc3ccnc4ccccc34)C(=O)O[C@]12C | 40 µg/mL (≈ 50.3 µM) | 0.04 µg/mL (≈ 0.0503 µM) | 1.2 µg/mL (≈ 1.51 µM) | 0.02 µg/mL (≈ 0.0251 µM) | 1.2 µg/mL (≈ 1.51 µM) | 0.02 µg/mL (≈ 0.0251 µM) | 40 µg/mL (≈ 50.3 µM) | 1.2 µg/mL (≈ 1.51 µM) | 0.02 µg/mL (≈ 0.0251 µM) | 1.2 µg/mL (≈ 1.51 µM) | 0.08 µg/mL (≈ 0.101 µM) | – | – | – | – | – | – | – | – | – | –
2 | CC[C@H]1OC(=O)[C@H](C)C(=O)[C@H](C)[C@@H](O[C@@H]2O[C@H](C)C[C@H](N(C)C)[C@H]2O)[C@](C)(OC)C[C@@H](C)C(=O)[C@H](C)[C@H]2N(CCCCn3cnc(-c4ccccc4)n3)C(=O)O[C@]12C | – | – | – | – | – | – | – | – | – | – | – | 40 µg/mL (≈ 49.3 µM) | 1.2 µg/mL (≈ 1.48 µM) | 0.15 µg/mL (≈ 0.185 µM) | 0.04 µg/mL (≈ 0.0493 µM) | 1.2 µg/mL (≈ 1.48 µM) | 0.02 µg/mL (≈ 0.0246 µM) | 40 µg/mL (≈ 49.3 µM) | 0.02 µg/mL (≈ 0.0246 µM) | 1.2 µg/mL (≈ 1.48 µM) | MIC (Streptococcus pneumoniae [21]): 0.6 µg/mL (≈ 0.739 µM); MIC (Streptococcus pneumoniae [22]): 0.3 µg/mL (≈ 0.369 µM)
3 | CC[C@H]1OC(=O)[C@H](C)[C@@H](O[C@H]2C[C@@](C)(OC)[C@@H](O)[C@H](C)O2)[C@H](C)[C@@H](O[C@@H]2O[C@H](C)C[C@H](N(C)C)[C@H]2O)[C@](C)(O)C[C@@H](C)CN(C)[C@H](C)[C@@H](O)[C@]1(C)O [AZITHROMYCIN] | 20 µg/mL (≈ 26.7 µM) | 0.3 µg/mL (≈ 0.401 µM) | 40 µg/mL (≈ 53.4 µM) | 0.6 µg/mL (≈ 0.801 µM) | 1.2 µg/mL (≈ 1.6 µM) | 0.15 µg/mL (≈ 0.2 µM) | 40 µg/mL (≈ 53.4 µM) | 40 µg/mL (≈ 53.4 µM) | 40 µg/mL (≈ 53.4 µM) | 40 µg/mL (≈ 53.4 µM) | 40 µg/mL (≈ 53.4 µM) | – | – | – | – | – | – | – | – | – | ED50 (Mus musculus [23]): 16 mg/kg; ED50 (Mus musculus [24]): > 100 mg/kg; ED50 (Mus musculus [25]): 30 mg/kg; ED50 (Mus musculus [26]): 94 mg/kg; ED50 (Mus musculus [27]): 145 mg/kg; ED50 (Mus musculus [28]): > 50 mg/kg; ED50 (Mus musculus [29]): > 50 mg/kg; ED50 (Mus musculus [30]): > 50 mg/kg; ED50 (Mus musculus [31]): 6 mg/kg; ED50 (Mus musculus [32]): > 50 mg/kg; ED50 (Mus musculus [33]): 56 mg/kg
4 | CC1(C)S[C@@H]2[C@H](NC(=O)[C@H](N)c3ccccc3)C(=O)N2[C@H]1C(=O)O [AMPICILLIN] | – | – | – | – | – | – | – | – | – | – | – | – | – | – | – | – | – | – | – | – | ED50 (Haemophilus influenzae [34]): > 600 mg/kg; ED50 (Haemophilus influenzae [35]): 39 mg/kg; ED50 (Haemophilus influenzae [36]): 5.5 mg/kg
5 | CC[C@H]1OC(=O)[C@H](C)C(=O)[C@H](C)[C@@H](O[C@@H]2O[C@H](C)C[C@H](N(C)C)[C@H]2O)[C@](C)(OC)C[C@@H](C)C(=O)[C@H](C)[C@H]2N(CCCCn3nnnc3-c3ccccc3)C(=O)O[C@]12C | – | – | – | – | – | – | – | – | – | – | – | 20 µg/mL (≈ 24.6 µM) | 1.2 µg/mL (≈ 1.48 µM) | 0.6 µg/mL (≈ 0.738 µM) | 0.02 µg/mL (≈ 0.0246 µM) | 1.2 µg/mL (≈ 1.48 µM) | 0.02 µg/mL (≈ 0.0246 µM) | 40 µg/mL (≈ 49.2 µM) | 0.02 µg/mL (≈ 0.0246 µM) | 0.6 µg/mL (≈ 0.738 µM) | MIC (Streptococcus pneumoniae [21]): 0.3 µg/mL (≈ 0.369 µM); MIC (Streptococcus pneumoniae [22]): 0.02 µg/mL (≈ 0.0246 µM)
